Test [1] relates to DCC α-fragment. The test is described as follows: DCC α-fragment Western blot, mouse ex vivo cochlea (spiral ganglion). The following applies: postnatal day 21 cochlea, 1 μM, 24 h, normalized to actin. Type of test: cell-based, CD-1 mice. An excerpt:
(§1) Previous reports have shown that DCC (deleted in colorectal cancer) is a γ-secretase substrate. DCC is the receptor for the guidance molecule, netrin, and its activation results in neuronal axon outgrowth, axon turning and synapse formation. Embryonic spinal cords of presenilin knockout mice treated display persistent expression of the DCC α-fragment; these fragments can enhance netrin-DCC mediated events, including axon outgrowth in cultured motor neurons (Taniguchi et al., 2003, J. Biol. Chem., 278:30425-30428, and Bai et al., 2011, Cell, 144(1): 106-18). The following studies were performed using GSM, “RO”, as well as the GSI, Compound I. RO has the structure:
Cochleae were obtained from postnatal day 21 CD-1 mice. An opening was made in the bone at the cochlear apex to allow for fluid flow. Cochlea were incubated in serum-free growth media (DMEM-F12, N2 and B27 serum supplements, penicillin/streptomycin) with 1 μM RO or 1 μM Compound I. After 24 h, spiral ganglion were isolated and processed for Western blot. Membranes were probed with a DCC antibody recognizing the intracellular domain and bands were normalized to actin.
(In general: Immunoblotting shows a protein as a band on a membrane.)

The test system of test [2] is Type I spiral ganglion neurons. The test is described as follows: Type I spiral ganglion neuron neurite outgrowth with GSMs. Type of test: cell-based, CD-1 mice. The following applies: for EC50: 24 h treatment, Type I SGNs; for neurite outgrowth (length of Type I SGN neurites): varying concentrations, 24 h. As to the method:
Spiral ganglion neurons (SGNs) were cultured from postnatal day 5 CD-1 mice using methods adapted from Whitlon D S, et al., Scientific Reports, 2015, 5, 15960, doi:10.1038/srep15960. Neurons were dissociated and plated onto collagen-coated 96-well plates in growth media (DMEM/F12, N2 and B27 serum supplements and penicillin/streptomycin). After 18 h in culture, neurons were treated with varying concentrations of RO or NGP-555 for 24 h. Neurons were fixed and stained with a rabbit b-tubulin (somato-axonal marker) antibody followed by a donkey-anti-rabbit secondary antibody conjugated to Alexa 568 and counterstained with Hoechst blue fluorescent dye to stain the DNA. Neurons were imaged on an InCell 2000. Neurite length was measured using ImageJ. Only β-tubulin^+ cells displaying bipolar morphology (indicative of Type I SGNs) were quantified.
To determine whether the netrin-DCC pathway is involved in GSM-induced neurite outgrowth, a function-blocking netrin antibody was applied to the media 1 h prior to addition of 1 μM test compound. After 24 h, neurons are stained with β-tubulin and only neurites from Type I neurons are analyzed. Co-application of the netrin antibody with test compound results in a significant reduction in neurite outgrowth (FIG. 4D).

The subject of test [3] is DCC α-fragment. The test is described as follows: DCC α-fragment Western blot, mouse ex vivo embryonic spinal cord. The following applies: embryonic day 15 spinal cord segments, 1 μM, 24 h, normalized to actin. Type of test: cell-based, CD-1 mice.
Excerpt: as §1
Spinal cords from embryonic day 15 CD-1 mice were collected and cut into 1-2 mm segments and transferred to serum-free growth media (DMEM-F12, N2 and B27 serum supplements, penicillin/streptomycin) with 1 μM RO or 1 μM Compound I. Segments were cultured for 24 h (37° C., 5% CO2) then processed for Western blot. Membranes were probed with a DCC antibody recognizing the intracellular domain and bands were normalized to actin.

Test [4] concerns synapses on inner hair cells. The test is described as follows: Mouse noise-induced cochlear synaptopathy, oral GSM. The format is in vivo, CBA/J mice. The following applies: 98 dB 8-16 kHz noise 2 h; oral gavage from three weeks later; fourteen days later; 32 kHz region. As to the method: Female CBA/J mice were exposed to 98 dB 8-16 kHz filtered noise for 2 hours. Three weeks later, vehicle (0.5% Methylcellulose, b.i.d.), NGP-555 (50 mg/kg, b.i.d.) or RO (10 mg/kg, q.d.) was given by oral gavage. Fourteen days later, mice were euthanized, cochlea removed, then tissue was fixed by perfusion with 4% paraformaldehyde. Cochlea were washed with calcium/magnesium free PBS then decalcified in 12.5 mM EDTA for 3 days. Cochlea were bisected with a midmodiolar cut through the oval window to apex. Individual turns were then separated and stained with antibodies against Myo6 and CtBP2. Synapses per inner hair cell were quantified on the turn containing the 32 kHz region. Consistent with literature, a decrease in synaptic density (but no decrease in inner or outer hair cell number) was observed after the 98 dB insult.

The subject of test [5] is Type I spiral ganglion neurons. Kind of test: Type I spiral ganglion neuron neurite outgrowth with GSIs. Type of test: cell-based, CD-1 mice. The following applies: 24-48 h, 0.1% DMSO. As to the method: Mouse spiral ganglion neurons (SGN) were harvested from CD-1 mice (postnatal day 3 to 5), dissociated and cultured on collagen I in serum free media. Cells were treated for 24-48 h with test compound in 0.1% DMSO then immunostained with the neurite marker, Tuj1 and imaged. Neurite length was quantified using ImageJ software (developed by NIH and available publicly). Only Tuj1^+ cells with clear bipolar morphology characteristic of Type I SGNs were quantified. The test compounds were Compound I, Compound II, and RO4929097, as well as the Notch sparing GSI, BMS-708163; NT-3 was included as positive control. […] Moreover, BMS-708163, a Notch-sparing GSI, and Compound I, a Notch inhibiting GSI, both increased type I SGN neurite outgrowth (FIG. 6C).

For test [6], the system named is inner hair cell synapses. Kind of test: Guinea pig kanamycin-induced cochlear synaptopathy model. Type of test: in vivo, Hartley guinea pigs. As to conditions: kanamycin 400 mg/kg i.p. 10 days; 30 μl of 2% in vehicle bilateral transtympanic on day 15; three months after. Here is the method: Beginning on day 0, male Hartley guinea pigs (450-500 g) were deafened by intraperitoneal administration of kanamycin (400 mg/kg) dosed once daily for 10 consecutive days. […] A loss of synapse density in this model has not been described previously. On day 15, animals received bilateral transtympanic injections of vehicle (30 μl), crystalline Compound I (30 μl of 2% in vehicle), or crystalline Compound II (30 μl of 2% in vehicle). Three months after administration of test article, animals were euthanized and cochleae collected and stained with phalloidin and antibodies against CtBP2 and NF-200. The number of CtBP2+/NF-200+ synapses were quantified and normalized to the number of inner hair cells to obtain synapse density. Synapse density was decreased with kanamycin treatment at 14.7 and 17.3 mm from the apex of the cochlea, which in the guinea pig cochlea, tonally correlates with 16 and 32 kHz, respectively, according to the Greenwood frequency map.
Vehicle (PF10) and GSI in vehicle used in Examples 6 and 7 were prepared as follows: To 129 mL sterile water was added, 0.96 g sodium chloride, 0.59 g sodium phosphate dibasic, and 0.14 g sodium phosphate monobasic. The solution was stirred at ambient temperature and 25.6 g poloxamer 407 was added and stirred overnight to yield a clear solution. […]

Test [7] concerns inner hair cell synapses. The following applies: noise-exposed mice, delivery to the round window niche; cited from earlier work.

As usually defined, the EC50 is the concentration at which the effect is half-maximal. On to `Cc1nsc(N2C[C@H]3CC[C@@H](C2)[C@@H]3Nc2nc3c(-c4ccc(F)c(F)c4F)cccn3n2)n1` [RO], for which the “DCC α-fragment level compared to the vehicle group” value in test [1] and in test [3] was “Increase in α-fragment” each time. In addition, the response in test [2] (Mus musculus, Neuron) was half-maximal at 24 nM (EC50). Further, the “neurite outgrowth (length of Type I SGN neurites)” value (shortened to “neurite outgrowth”) in test [2] is listed as “dose dependent increase”. In addition, in test [4], the “number of synapses on inner hair cells (synaptic density)” value was “increase in synaptic density”.
Regarding `Cc1cn(-c2ccc3n(c2=O)CCN([C@@H](C)[C@@H]2CC[C@H](c4cc(F)c(Cl)cc4C(F)(F)F)O2)C3=O)cn1` [PF-06648671], in test [2], the EC50 came out at 0.303 nM and the “neurite outgrowth” value was “dose-dependence increases”.
With `CC(C)(C(=O)NCC(F)(F)C(F)(F)F)C(=O)N[C@@H]1C(=O)Nc2ccccc2-c2ccccc21` [RO4929097, reference compound], in test [5], the “lengths of Type I SGN neurites” value is on record as “significant increase”.
As to `CN1C(=O)[C@@H](NC(=O)[C@](C)(F)C(=O)NCC(F)(F)C(F)(F)F)c2ccccc2-c2ccccc21` [Compound II, (2R)-2-fluoro-2-methyl-N—[(S)-5-methyl-6-oxo-6,7-dihydro-5H-dibenzo[b,d]azepin-7-yl]-N′-(2,2,3,3,3-pentafluoropropyl)malonamide], the “synapse density (CtBP2+/NF-200+ synapses per inner hair cell)” value in test [6] is listed as “increased”. The “lengths of Type I SGN neurites” value in test [5] is reported as “significant increase”.
In test [2] (Mus musculus, Neuron), `CCc1cc(Nc2nc(-c3ccc(-n4cnc(C)c4)c(F)c3)cs2)c(C)cc1C` [NGP555] showed an EC50 of 0.527 nM. The “neurite outgrowth” value in test [2] is listed as “dose dependent increase”. Moreover, in test [4], the “number of synapses on inner hair cells (synaptic density)” value is given as “significantly increased”.
As to `COc1ccc2c(c1)N1CCC(C)(C)C1=CC(=O)C2NC(=O)[C@H](C)NC(=O)CCC(F)(F)F` (stereo partly drawn) [Compound X, 4,4,4-trifluoro-N-((2S)-1-((9-methoxy-3,3-dimethyl-5-oxo-2,3,5,6-tetrahydro-1H-benzo[f]pyrrolo[1,2-a]azepin-6-yl)amino)-1-oxopropan-2-yl)butanamide], the “lengths of Type I SGN neurites” value in test [5] is recorded as “dose-dependent increase”.
On the same count and under the same terms, next, `NC(=O)[C@@H](CCC(F)(F)F)N(Cc1ccc(-c2ncon2)cc1F)S(=O)(=O)c1ccc(Cl)cc1` [BMS-708163, reference compound]: “increased”.

B1: NT-3: growth factor that binds to TrkC receptors; positive control (protein, UniProt P20783 139-257, looked up)
Neurotrophin-3: YAEHKSHRGEYSVCDSESLWVTDKSSAIDIRGHQVTVLGEIKTGNSPVKQYFYETRCKEARPVKNGCRGIDDKHWNSQCKTSQTYVRALTSENNKLVGWRWIRIDTSCVCALSRKIGRT
On to B1, for which, in test [7], the “ABR wave 1 amplitude” value was “improvement” and the “inner hair cell synapses” value is listed as “recovered inner hair cell synapses”.
